This is an account of results in patent US12371454B2, “Cyclic peptide compound having Kras inhibitory action” (priority 2019, dated 2025).

Each structure is given as a SMILES string. Starred links: 1 amine or outer side, 2 acyl side, 3 side chain; linkers in the order of their positions; H or OH if unused. Positions of bridges follow the written chain, without caps; N, C: chain ends. Non-standard residues stand in square brackets, D forms with d. Residues, ends and D or L forms follow the SMILES beside them. *: point of attachment. hPhe(3-Cl-4-CF3) = N[C@@H](CCc1ccc(C(F)(F)F)c(Cl)c1)C(=O)O; NMeDab(N,N-(CH2CF2CH2)) = CN[C@@H](CCN1CC(F)(F)C1)C(=O)O; hPhe(3-F,4-CF3) = N[C@@H](CCc1ccc(C(F)(F)F)c(F)c1)C(=O)O; X23 = CN([C@@H](Cc1ccccc1OC(F)(F)F)C(=O)[*:2])[*:1]; NMePhe(4-Cl) = CN[C@@H](Cc1ccc(Cl)cc1)C(=O)O; NMePhe(3-F) = CN[C@@H](Cc1cccc(F)c1)C(=O)O; hPhe(4-Cl) = N[C@@H](CCc1ccc(Cl)cc1)C(=O)O; NMedβ3hAla = C[C@H](CC(=O)[*:2])N(C)[*:1]; Abu(4,4,4-F3) = N[C@@H](CC(F)(F)F)C(=O)O; NMeGly(cPent) = CN[C@H](C(=O)O)C1CCCC1; Phe(3-I) = N[C@@H](Cc1cccc(I)c1)C(=O)O; Pro(4,4-F2) = O=C(O)[C@@H]1CC(F)(F)CN1; NMeCha = CN[C@@H](CC1CCCCC1)C(=O)O; N(CH2CH2)2CF2 = FC1(F)CCN(*)CC1; Gly(cPr) = N[C@H](C(=O)O)C1CC1; NMeD = CN[C@@H](CC(=O)O)C(=O)O; NMeL = CN[C@@H](CC(C)C)C(=O)O; NPrAla = CCCN[C@@H](C)C(=O)O; NMeV = CN[C@H](C(=O)O)C(C)C; d(β3hA) = C[C@@H](N)CC(=O)O; Morpholide = C1CN(*)CCO1; NMeA = CN[C@@H](C)C(=O)O; NMeAib = CNC(C)(C)C(=O)O; Nle = CCCC[C@H](N)C(=O)O; Piperidide = C1CCN(*)CC1; Pyrrolidide = C1CCN(*)C1; dNMeA = CN[C@H](C)C(=O)O; Ac5c = NC1(C(=O)O)CCCC1; Aze = O=C(O)[C@@H]1CCN1; NPrGly = CCCNCC(=O)O; Sar = CNCC(=O)O

The target in this experiment is T1, Kras and SOS1 (biotin-tagged human Kras loaded with GDP, His-tagged human SOS1) (Homo sapiens, UniProt P01116, G12D).
T1 construct: made in house; host or cells: E. coli (stated for Kras only)
T1 sequence (P01116 1-188 isoform P01116-2 G12D): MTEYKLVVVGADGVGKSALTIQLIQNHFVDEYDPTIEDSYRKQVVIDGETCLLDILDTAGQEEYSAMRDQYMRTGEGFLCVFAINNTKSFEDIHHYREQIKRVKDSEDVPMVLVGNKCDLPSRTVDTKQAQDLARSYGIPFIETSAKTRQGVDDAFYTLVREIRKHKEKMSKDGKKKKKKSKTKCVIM
The experiment is described as follows: Protein-protein interaction inhibition between Kras and SOS1 (KrasGl2D-SOS PPI) using AlphaScreen. The note with it: AlphaScreen; biotin-tagged human Kras loaded with GDP, His-tagged human SOS1; read-out: KRAS G12D-SOS PPI IC50. The class given is binding. Here is the method: Protein-Protein Interaction Inhibition Between Kras and SOS1 (KrasGl2D-SOS PPI) Using AlphaScreen
Protein-protein interaction inhibition (PPI) between Kras and SOS1 was measured by energy transfer from nickel-conjugated donor beads to streptavidin-conjugated acceptor beads using biotin-tagged human Kras expressed in E. coli and loaded with GDP after purification and His-tagged human SOS1 enzyme. This measurement utilizes the phenomenon in which donor beads are irradiated with light at 680 nm, such that energy is transferred to acceptor beads through singlet oxygen and light at 520-620 nm is detected from the acceptor beads.
Inhibition of binding between K-ras and SOS1 is known to inhibit signaling downstream of Kras.
For orientation: Alpha assays give light when donor and acceptor beads are brought close together.
Regarding `CC[C@H](C)[C@@H]1NC(=O)[C@H](CC(C)C)N(C)C(=O)C[C@@H](C(=O)N(C)C)N(C)C(=O)[C@H](C2CCCC2)N(C)C(=O)C2(CCCC2)NC(=O)[C@H](Cc2cccc(F)c2)N(C)C(=O)[C@H](CCc2ccc(C(F)(F)F)c(Cl)c2)NC(=O)CN(C)C(=O)[C@H](CC2CCCCC2)N(C)C(=O)[C@@H]2CCN2C(=O)[C@H](C)N(C)C1=O` [Compound 95] ([NMeL]I[NMeA][Aze][NMeCha][Sar][hPhe(3-Cl-4-CF3)][NMePhe(3-F)][Ac5c][NMeGly(cPent)][NMeD]-NMe2; lactam N-11), the concentration for half-maximal inhibition (IC50) was found to be 11 nM.
The value for `CC[C@H](C)[C@@H]1NC(=O)[C@H](CC(C)C)N(C)C(=O)C[C@@H](C(=O)N2CCCC2)NC(=O)[C@H](CC(C)C)NC(=O)C(C)(C)N(C)C(=O)[C@H](CC(C)C)NC(=O)[C@H](CCc2ccc(C(F)(F)F)c(F)c2)NC(=O)CN(C)C(=O)[C@H](Cc2ccc(Cl)cc2)N(C)C(=O)CN(C)C(=O)CN(C)C1=O` [Compound 96] ([NMeL]I[Sar][Sar][NMePhe(4-Cl)][Sar][hPhe(3-F,4-CF3)]L[NMeAib]LD-Pyrrolidide; lactam N-11) was 220 nM; that for `CC[C@H](C)[C@@H]1NC(=O)[C@H](C)N(C)C(=O)C[C@@H](C)NC(=O)[C@H](C2CCCC2)N(C)C(=O)C2(CCCC2)NC(=O)[C@@H]2CCCN2C(=O)[C@H](CCc2ccc(C(F)(F)F)c(Cl)c2)NC(=O)[C@@H](C)N(C)C(=O)[C@H](CC(C)C)N(C)C(=O)[C@@H]2CCN2C(=O)[C@H](C)N(C)C1=O` [Compound 98] (cyclo([Ac5c][NMeGly(cPent)][d(β3hA)][NMeA]I[NMeA][Aze][NMeL][dNMeA][hPhe(3-Cl-4-CF3)]P)) was 68 nM; that for `CC(C)C[C@H]1C(=O)N[C@@H](C2CC2)C(=O)N(C)CC(=O)N(C)CC(=O)N(C)[C@@H](CC2CCCCC2)C(=O)N(C)CC(=O)N[C@@H](CCc2ccc(C(F)(F)F)c(Cl)c2)C(=O)N2CCC[C@H]2C(=O)NC2(CCCC2)C(=O)N(C)[C@@H](C(C)C)C(=O)N[C@H](C)CC(=O)N1C` [Compound 101] (cyclo([Ac5c][NMeV][d(β3hA)][NMeL][Gly(cPr)][Sar][Sar][NMeCha][Sar][hPhe(3-Cl-4-CF3)]P)) was 160 nM.
On to `CC[C@H](C)[C@@H]1NC(=O)[C@H](CC(C)C)N(C)C(=O)C[C@@H](C(=O)N(C)C)N(C)C(=O)[C@H](C2CCCC2)N(C)C(=O)[C@H](C(C)C)NC(=O)[C@H](C)N(C)C(=O)[C@H](CCc2ccc(C(F)(F)F)c(Cl)c2)NC(=O)CN(C)C(=O)[C@H](CC2CCCCC2)N(C)C(=O)[C@@H]2CCN2C(=O)[C@H](C)N(C)C1=O` [Compound 102] ([NMeL]I[NMeA][Aze][NMeCha][Sar][hPhe(3-Cl-4-CF3)][NMeA]V[NMeGly(cPent)][NMeD]-NMe2; lactam N-11), for which the IC50 came to 11 nM.
Regarding `CC[C@H](C)[C@@H]1NC(=O)[C@H](CC(C)C)N(C)C(=O)C[C@@H](C(=O)N(C)C)N(C)C(=O)[C@H](C2CCCC2)N(C)C(=O)[C@H](CC(F)(F)F)NC(=O)[C@H](CCN2CC(F)(F)C2)N(C)C(=O)[C@H](CCc2ccc(C(F)(F)F)c(Cl)c2)NC(=O)CN(C)C(=O)[C@H](CC2CCCCC2)N(C)C(=O)[C@@H]2CCN2C(=O)[C@H](C)N(C)C1=O` [Compound 104] ([NMeL]I[NMeA][Aze][NMeCha][Sar][hPhe(3-Cl-4-CF3)][NMeDab(N,N-(CH2CF2CH2))][Abu(4,4,4-F3)][NMeGly(cPent)][NMeD]-NMe2; lactam N-11), the IC50 is 28 nM.
Turning to `CC[C@H](C)[C@@H]1NC(=O)[C@H](CC(C)C)N(C)C(=O)C[C@@H](C(=O)N2CCOCC2)N(C)C(=O)[C@H](C2CCCC2)N(C)C(=O)C2(CCCC2)NC(=O)[C@H](CC(=O)N2CCC(F)(F)CC2)N(C)C(=O)[C@H](CCc2ccc(C(F)(F)F)c(Cl)c2)NC(=O)CN(C)C(=O)[C@H](CC2CCCCC2)N(C)C(=O)[C@@H]2CCN2C(=O)[C@H](C)N(C)C1=O` [Compound 105] ([NMeL]I[NMeA][Aze][NMeCha][Sar][hPhe(3-Cl-4-CF3)][NMeD](N(CH2CH2)2CF2)[Ac5c][NMeGly(cPent)][NMeD]-Morpholide; lactam N-11), the IC50 amounted to 5.3 nM.
The figure for `CC[C@H](C)[C@@H]1NC(=O)[C@H](CC(C)C)N(C)C(=O)C[C@@H](C)N(C)C(=O)[C@H](C2CCCC2)N(C)C(=O)C2(CCCC2)NC(=O)[C@@H]2CC(F)(F)CN2C(=O)[C@H](CCc2ccc(C(F)(F)F)c(Cl)c2)NC(=O)CN(C)C(=O)[C@H](CC2CCCCC2)N(C)C(=O)CN(C)C(=O)CN(C)C1=O` [Compound 107] (cyclo([Ac5c][NMeGly(cPent)][NMedβ3hAla][NMeL]I[Sar][Sar][NMeCha][Sar][hPhe(3-Cl-4-CF3)][Pro(4,4-F2)])) is 4 nM; for `CC[C@H](C)[C@@H]1NC(=O)[C@H](C)N(C)C(=O)C[C@@H](C)NC(=O)[C@H](C2CCCC2)N(C)C(=O)C2(CCCC2)NC(=O)[C@@H]2CCCN2C(=O)[C@H](CCc2ccc(C(F)(F)F)c(Cl)c2)NC(=O)[C@@H](C)N(C)C(=O)[C@H](C(C)C)N(C)C(=O)CN(C)C(=O)CN(C)C1=O` [Compound 109] (cyclo([Ac5c][NMeGly(cPent)][d(β3hA)][NMeA]I[Sar][Sar][NMeV][dNMeA][hPhe(3-Cl-4-CF3)]P)) it is 40 nM.
The figure for `CCCC[C@@H]1NC(=O)[C@H](Cc2cccc(I)c2)NC(=O)CN(C)C(=O)[C@H](Cc2ccc(Cl)cc2)N(C)C(=O)CN(C)C(=O)CN(C)C(=O)[C@H]([C@@H](C)CC)NC(=O)[C@H](CC(C)C)N(C)C(=O)C[C@@H](C(=O)N2CCCCC2)N(C)C(=O)[C@H](CC(C)C)NC(=O)[C@H](Cc2ccccc2OC(F)(F)F)N(C)C1=O` [Compound 111] ([NMeL]I[Sar][Sar][NMePhe(4-Cl)][Sar][Phe(3-I)][Nle][X23]L[NMeD]-Piperidide; lactam N-11) is 100 nM; for `CC[C@H](C)[C@@H]1NC(=O)[C@H](CC(C)C)N(C)C(=O)C[C@@H](C(=O)N2CCCCC2)N(C)C(=O)[C@H](C(C)C)N(C)C(=O)C2(CCCC2)NC(=O)[C@@H]2CCCN2C(=O)[C@H](CCc2ccc(Cl)cc2)NC(=O)CN(C)C(=O)[C@H](CC2CCCCC2)N(C)C(=O)CN(C)C(=O)[C@@H]2CCN2C1=O` [Compound 112] ([NMeL]I[Aze][Sar][NMeCha][Sar][hPhe(4-Cl)]P[Ac5c][NMeV][NMeD]-Piperidide; lactam N-11) it is 73 nM; for `CCCN1C(=O)C[C@@H](C)NC(=O)[C@H](C(C)C)N(C)C(=O)C2(CCCC2)NC(=O)[C@@H]2CCCN2C(=O)[C@H](CCc2ccc(C(F)(F)F)c(Cl)c2)NC(=O)CN(C)C(=O)[C@H](CC2CCCCC2)N(C)C(=O)CN(C)C(=O)CN(C)C(=O)[C@H]([C@@H](C)CC)NC(=O)[C@@H]1C` [Compound 114] (cyclo([Ac5c][NMeV][d(β3hA)][NPrAla]I[Sar][Sar][NMeCha][Sar][hPhe(3-Cl-4-CF3)]P)) it is 20 nM.
The value for `CCCN1CC(=O)N(C)CC(=O)N(C)[C@@H](CC2CCCCC2)C(=O)N(C)CC(=O)N[C@@H](CCc2ccc(C(F)(F)F)c(Cl)c2)C(=O)N2CCC[C@H]2C(=O)NC2(CCCC2)C(=O)N(C)[C@@H](C(C)C)C(=O)N[C@H](C)CC(=O)N(C)[C@@H](CC(C)C)C(=O)N[C@@H]([C@@H](C)CC)C1=O` [Compound 116] (cyclo([Ac5c][NMeV][d(β3hA)][NMeL]I[NPrGly][Sar][NMeCha][Sar][hPhe(3-Cl-4-CF3)]P)) was 140 nM.

Broadly, the IC50 is the concentration at which inhibition is half-maximal.
